Data from BigSolDB 2.1.

O=C(Cn1cnnn1)N[C@@H]1C(=O)N2C(C(=O)O)=C(CSc3nncs3)CS[C@H]12
solubility (mole fraction)
Settings	278.15 K	283.15 K	288.15 K	293.15 K	298.15 K	303.15 K	308.15 K	313.15 K
in acetone	0.00153	0.00156	0.00161	0.00165	0.0017	0.00184	0.00193	0.0023
in acetonitrile	0.000124	0.000137	0.000159	0.000164	0.000184	0.000219	0.000253	0.000284
in ethanol	4.85e-05	5.92e-05	6.49e-05	7.26e-05	9.45e-05	0.000104	0.000122	0.000152
in ethyl acetate	0.000188	0.000217	0.000242	0.0003	0.000342	0.000371	0.000433	0.00053
in isopropanol	6.43e-05	6.82e-05	7.37e-05	8.59e-05	0.000104	0.000114	0.000134	0.000152
in methanol	1.2e-05	1.5e-05	1.92e-05	2.43e-05	3.26e-05	4.34e-05	5.48e-05	6.84e-05
in water	1.04e-05	1.27e-05	1.64e-05	1.92e-05	2.51e-05	3.24e-05	4.27e-05	5.32e-05
